# Patent EP1956016A1, “Bicyclic acyltryptophanols” (Bayer Schering Pharma Aktiengesellschaft, priority 2006, dated 2008)
# Molecular target: T1, human FSH receptor (Homo sapiens, UniProt P23945)
# T1 construct: expressed in transfected cells; host or cells: CHO cells (hFSHR clone 16)
# T1 sequence (P23945 18-695): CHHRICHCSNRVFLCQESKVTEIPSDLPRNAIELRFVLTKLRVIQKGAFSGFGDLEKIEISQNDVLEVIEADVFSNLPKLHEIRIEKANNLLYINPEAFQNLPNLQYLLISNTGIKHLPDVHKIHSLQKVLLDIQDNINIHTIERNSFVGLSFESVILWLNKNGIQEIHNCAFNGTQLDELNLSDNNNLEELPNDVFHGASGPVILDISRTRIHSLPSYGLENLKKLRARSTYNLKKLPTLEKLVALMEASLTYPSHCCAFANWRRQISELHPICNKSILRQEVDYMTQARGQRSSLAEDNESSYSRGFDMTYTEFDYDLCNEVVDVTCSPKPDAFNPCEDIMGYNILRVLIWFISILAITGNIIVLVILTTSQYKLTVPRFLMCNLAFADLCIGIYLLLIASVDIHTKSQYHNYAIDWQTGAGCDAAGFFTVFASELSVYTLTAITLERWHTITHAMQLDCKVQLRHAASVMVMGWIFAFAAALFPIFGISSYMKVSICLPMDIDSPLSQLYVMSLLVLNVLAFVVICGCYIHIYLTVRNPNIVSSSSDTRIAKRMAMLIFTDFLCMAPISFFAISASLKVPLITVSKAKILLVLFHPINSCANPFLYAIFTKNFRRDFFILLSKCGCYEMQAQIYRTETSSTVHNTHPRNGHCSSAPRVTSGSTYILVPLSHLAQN
# Test: HTRF assay for measuring cAMP in cells (FSH antagonism)
# Format: cell-based
# Conditions: hFSHR clone 16 cells (CHO cells stably transfected with the human FSH receptor); in the presence of 1 e-9 mol/l hFSH; 37°C for 2h
# Experimental: HTRF assay for measuring cAMP in cells
# The method is based on a competitive immunoassay between native cAMP, which has been produced by the cells, and cAMP which is labelled with XL665. The tracer binding was visualized by a monoclonal antibody, anti-cAMP labelled with cryptate [HTRF = homogeneous time-resolved fluorescence].
# The specific signal is inversely proportional to the cAMP concentration of the samples employed.
# The 665nm/ 620nm fluorescence ratio was evaluated.
# The following material was used: 96-well plates for the tissue culture, 96-well plates with black edge and black base (e.g. Fluotrac 600 from Greiner), 96-well plates for the substance dilutions of polypropylene and CAMP Femtomolar (4000wells Kit, CIS Bio International # 62AM1PEC).
# The following reagents were used: BSA (bovine serum albumin) Fraction V protease-free, IBMX (3-isobutyl-1-methylxanthine), hFSH (human follicle stimulating hormone), Triton X-100 analytical grade, potassium fluoride analytical grade, G 418 (Geneticin) and Accutase.
# Buffer 1 (washing and testing buffer) contained PBS, 1 mM CaCl2, 1 mM MgCl2, 0.2% glucose; 0.1% BSA, 1 mM IBMX.
# Buffer 2 (2x lysis buffer) contained 1 % Triton X-100 in PBS (without CaCl2 and MgCl2).
# Buffer 3 (assay buffer) contained 50 mM potassium phosphate buffer (pH 7.0); 800 mM potassium fluoride; 0.2% BSA (always added fresh).
# On day 1, the cells were seeded in 96-well plates (3x10^4 cells per well hFSHR clone 16 cells (CHO cells stably transfected with the human FSH receptor in 150 µl of medium). The next day, test substance dilutions were made up. For this purpose, all the substances were diluted in ice-cold buffer 1 (with or without hFSH), and the substance dilutions were placed on ice until applied to the cells.
# The cell supernatant was then aspirated off, and the cells were washed 2x with 200 µl of buffer 1. The cells were treated with 60 µl of the appropriate substance concentrations at 37°C for 2h. The cells were then lysed with 60 µl of buffer 2 (put onto the supernatant) (on a plate shaker at RT for 30 min).
# The test conjugates (XL-665 and anti-cAMP cryptate) were diluted in buffer 3 in accordance with the manufacturers' information. The actual mixture for measurement was pipetted into a black 96-well plate (in each case 15 µl of the cell lysate diluted with 35 µl of buffer 1; firstly 25 µl of XL-665 conjugate were pipetted and, after 10 min, 25 µl of the anti-cAMP cryptate were added). This is followed by incubation at RT for 90 minutes. The measurement was carried out in a PheraStar (BMG).
# Tissue culture conditions
# 1) hFSHr clone 16 Ham's F12 PSG 10% FCS 700 µg/ml G 418 (Geneticin) from PAA.
# Dose-effect curve (hFSH) for the human receptor: 1 e-8, 3e-9, 1 e-9, 3e-10, 1e-10, 3e-11, 1e-11, 3e-12 mol/l.
# The test substances were employed in suitable dilutions in the absence (test for agonism) and in the presence of 1 e-9 mol/l hFSH.
# The values of the well ratio were averaged and then entered directly in SigmaPlot versus the concentrations. The maximum and minimum values were determined for each plate, and half the difference is to be regarded as IC50.
row,IC50,Compound
1,150 nM,"CCC1Cc2cc(-c3ccc(OC)c(OC)c3)cc(C(=O)N[C@@H](CO)Cc3c[nH]c4ccccc34)c2O1 (stereo partly drawn) [Example 13, 5-(3,4-Dimethoxy-phenyl)-2-ethyl-2,3-dihydro-benzofuran-7-carboxylic acid [(R)-1-hydroxymethyl-2-(1H-indol-3-yl)-ethyl]-amide]"
2,2000 nM,"COc1cc(-c2cc3c(c(C(=O)N[C@@H](CO)Cc4c[nH]c5ccccc45)c2)OCC3)cc(F)c1F [Example 20, 5-(3,4-Difluoro-5-methoxy-phenyl)-2,3-dihydro-benzofuran-7-carboxylic acid [(R)-2-hydroxy-1-(1H-indol-3-ylmethyl)-ethyl]-amide]"
3,450 nM,"Cc1ccccc1C#Cc1cc2c(c(C(=O)N[C@@H](CO)Cc3c[nH]c4ccccc34)c1)OCC=C2 [Example 4, 6-o-Tolylethynyl-2H-chromene-8-carboxylic acid [(R)-1-hydroxymethyl-2-(1H-indol-3-yl)-ethyl]-amide]"
4,130 nM,"CNC(=O)c1ccc(-c2cc3c(c(C(=O)N[C@@H](CO)Cc4c[nH]c5ccccc45)c2)OCC=C3)cc1Cl [Example 2, 6-(3-Chloro-4-methylcarbamoyl-phenyl)-2H-chromene-8-carboxylic acid [(R)-2-hydroxy-1-(1H-indol-3-ylmethyl)-ethyl]-amide]"
5,350 nM,"C=CC1Cc2cc(-c3ccc(OC)c(OC)c3)cc(C(=O)N[C@@H](CO)Cc3c[nH]c4ccccc34)c2O1 (mixture of isomers) [Example 12, 5-(3,4-Dimethoxy-phenyl)-2-vinyl-2,3-dihydro-benzofuran-7-carboxylic acid [(R)-1-hydroxymethyl-2-(1H-indol-3-yl)-ethyl]-amide]"
6,450 nM,"CNC(=O)c1ccc(-c2cc3c(c(C(=O)N[C@@H](CO)Cc4c[nH]c5ccccc45)c2)OCCO3)cc1Cl [Example 14, 7-(3-Chloro-4-methylcarbamoyl-phenyl)-2,3-dihydro-benzo[1,4]dioxine-5-carboxylic acid [(R)-2-hydroxy-1-(1 H-indol-3-ylmethyl)-ethyl]-amide]"
7,14 nM,"CNC(=O)c1cc(F)cc(-c2cc3c(c(C(=O)N[C@@H](CO)Cc4c[nH]c5ccccc45)c2)OC(C)(C)C=C3)c1 [Example 8, 6-(3-Fluoro-5-methylcarbamoyl-phenyl)-2,2-dimethyl-2H-chromene-8-carboxylic acid [(R)-2-hydroxy-1-(1 H-indol-3-yl-methyl)-ethyl]-amide]"
